Data reported in US6737383B1, “Herbicidal oxadiazolidines” (priority 1999, dated 2004).

Tests used:
morningglory = assay: Test B pre/postemergence morningglory; type: in vivo, Ipomoea hederacea
Summary of the method: (§1)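 Herbicidal effect was estimated by eye on a ten-point control scale after plants spent twelve to sixteen days in a greenhouse following soil or foliar treatment. Foliar sprays targeted plants at one to four leaves; all doses were formulated in a non-phytotoxic solvent with surfactant.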

pigweed = assay: Test B pre/postemergence pigweed; type: in vivo, Amaranthus retroflexus
Summary of the method: as §1

wild oat = assay: Test B pre/postemergence wild oat; type: in vivo, Avena fatua
Summary of the method: as §1

[1] = Preemergence, Rate 62 g/ha, scale of 0 to 10 where 0 is no effect and 10 is complete control
[2] = Preemergence, Rate 125 g/ha, 0 is no effect, 10 is complete control
[3] = Preemergence, Rate 250 g/ha, scale 0 to 10, 0 is no effect, 10 is complete control
[4] = Preemergence, Rate 500 g/ha, scale of 0 to 10 where 0 is no effect and 10 is complete control
[5] = Rate 62 g/ha, Postemergence, scale of 0 to 10 where 0 is no effect and 10 is complete control
[6] = Rate 125 g/ha, Postemergence, scale 0 to 10
[7] = Rate 500 g/ha, Postemergence, scale 0 to 10
[8] = Preemergence, Rate 250 g/ha, scale of 0 to 10 where 0 is no effect and 10 is complete control
[9] = Rate 125 g/ha, Preemergence, scale of 0 to 10 where 0 is no effect and 10 is complete control
[10] = Rate 500 g/ha, Postemergence, scale 0 to 10, 0 no effect, 10 complete control
[11] = Postemergence, Rate 62 g/ha, scale 0 to 10, 0 is no effect, 10 is complete control
[12] = Postemergence, Rate 250 g/ha, scale 0 to 10, 0 no effect, 10 complete control
[13] = Preemergence, Rate 31 g/ha, visual rating, scale 0 to 10 (0 no effect, 10 complete control)
[14] = Preemergence, Rate 62 g/ha, scale 0 to 10, 0 is no effect, 10 is complete control
[15] = Preemergence, Rate 125 g/ha, scale 0 to 10 (0 no effect, 10 complete control)
[16] = Rate 31 g/ha, Postemergence, scale 0 to 10
[17] = Rate 125 g/ha, Postemergence, scale 0 to 10, 0 no effect, 10 complete control
[18] = Preemergence, Rate 62 g/ha, scale 0 to 10 (0 no effect, 10 complete control)
[19] = Preemergence, Rate 500 g/ha, scale 0 (no effect) to 10 (complete control)
[20] = Postemergence, Rate 125 g/ha, scale of 0 to 10 where 0 is no effect and 10 is complete control
[21] = Postemergence, Rate 250 g/ha, scale of 0 to 10, 0 is no effect, 10 is complete control
[22] = Preemergence, Rate 125 g/ha, scale of 0 to 10 where 0 is no effect and 10 is complete control
[23] = Preemergence, Rate 250 g/ha, scale 0 to 10 (0 no effect, 10 complete control)
[24] = Rate 62 g/ha, Postemergence, scale 0 to 10 (0 no effect, 10 complete control)
[25] = Rate 125 g/ha, Postemergence, scale of 0 to 10 where 0 is no effect and 10 is complete control
[26] = Rate 250 g/ha, Postemergence, scale of 0 to 10 where 0 is no effect and 10 is complete control

## CC(C)N(C(=O)n1oc(=O)n(Cc2ccco2)c1=O)c1ccc(Cl)cc1 [Compound 206]
morningglory; [1]
  Morningglory plant response rating: 0
morningglory; [2]
  Morningglory plant response rating (0 to 10 scale): 0
morningglory; [3]
  Morningglory plant response rating: 0
morningglory; [4]
  Plant response rating, Morningglory: 0
morningglory; [5]
  Morningglory plant response rating: 1
morningglory; [6]
  Morningglory plant response rating: 1
morningglory; Rate 250 g/ha, Postemergence
  Plant response rating (0 to 10; 0 is no effect, 10 is complete control), Morningglory: 2
morningglory; [7]
  Morningglory plant response rating: 5
pigweed; [1]
  Redroot pigweed plant response rating: 0
pigweed; [2]
  Redroot pigweed plant response rating (0 to 10 scale): 0
pigweed; [3]
  Redroot pigweed plant response rating: 0
pigweed; [4]
  Plant response rating, Redroot pigweed: 3
pigweed; [5]
  Redroot pigweed plant response rating: 0
pigweed; [6]
  Redroot pigweed plant response rating: 0
pigweed; Rate 250 g/ha, Postemergence
  Plant response rating (0 to 10; 0 is no effect, 10 is complete control), Redroot pigweed: 3
pigweed; [7]
  Redroot pigweed plant response rating: 0
Wild oat; [1]
  Wild oats plant response rating: 0
Wild oat; [3]
  Wild oats plant response rating: 0
Wild oat; [4]
  Plant response rating, Wild oats: 0
Wild oat; [5]
  Wild oats plant response rating: 0
Wild oat; [6]
  Wild oats plant response rating: 0
Wild oat; Rate 250 g/ha, Postemergence
  Plant response rating (0 to 10; 0 is no effect, 10 is complete control), Wild oats: 0

## CC(C)N(C(=O)n1oc(=O)n(-c2cccnc2)c1=O)c1ccccc1 [Compound 235]
morningglory; [1]
  Morningglory plant response rating: 0
morningglory; [8]
  Morningglory plant response rating: 0
morningglory; [4]
  Plant response rating, Morningglory: 0
morningglory; [5]
  Morningglory plant response rating: 2
morningglory; [6]
  Morningglory plant response rating: 2
morningglory; [9]
  Morningglory plant response rating: 0
morningglory; Rate 250 g/ha, Postemergence
  Plant response rating (0 to 10; 0 is no effect, 10 is complete control), Morningglory: 6
morningglory; [10]
  Morningglory plant response rating: 7
pigweed; [1]
  Redroot pigweed plant response rating: 0
pigweed; [8]
  Redroot pigweed plant response rating: 0
pigweed; [4]
  Plant response rating, Redroot pigweed: 0
pigweed; [5]
  Redroot pigweed plant response rating: 0
pigweed; [6]
  Redroot pigweed plant response rating: 0
pigweed; [9]
  Redroot pigweed plant response rating: 0
pigweed; Rate 250 g/ha, Postemergence
  Plant response rating (0 to 10; 0 is no effect, 10 is complete control), Redroot pigweed: 0
pigweed; [10]
  Redroot pigweed plant response rating: 0
Wild oat; [1]
  Wild oats plant response rating: 0
Wild oat; [8]
  Wild oats plant response rating: 0
Wild oat; [4]
  Plant response rating, Wild oats: 0
Wild oat; [5]
  Wild oats plant response rating: 0
Wild oat; [6]
  Wild oats plant response rating: 0
Wild oat; [9]
  Wild oats plant response rating: 0
Wild oat; Rate 250 g/ha, Postemergence
  Plant response rating (0 to 10; 0 is no effect, 10 is complete control), Wild oats: 0
Wild oat; [10]
  Wild oats plant response rating: 0

## CCN(C(=O)n1oc(=O)n(-c2ccccc2OC)c1=O)C1CCCCC1 [Compound 29]
morningglory; [11]
  Morningglory plant response rating: 0
morningglory; [12]
  Morningglory plant response rating: 0
morningglory; [13]
  Morningglory plant response rating: 0
morningglory; [14]
  Plant response rating, Morningglory: 0
morningglory; [15]
  Plant response rating, Morningglory: 0
morningglory; [8]
  Plant response rating, Morningglory: 0
morningglory; [16]
  Morningglory plant response rating: 0
morningglory; [17]
  Morningglory plant response rating: 0
pigweed; [11]
  Redroot pigweed plant response rating: 0
pigweed; [12]
  Redroot pigweed plant response rating: 0
pigweed; [13]
  Redroot pigweed plant response rating: 0
pigweed; [14]
  Plant response rating, Redroot pigweed: 0
pigweed; [15]
  Plant response rating, Redroot pigweed: 0
pigweed; [8]
  Plant response rating, Redroot pigweed: 5
pigweed; [16]
  Redroot pigweed plant response rating: 0
pigweed; [17]
  Redroot pigweed plant response rating: 0
Wild oat; [11]
  Wild oats plant response rating: 0
Wild oat; [12]
  Wild oats plant response rating: 0
Wild oat; [13]
  Wild oats plant response rating: 0
Wild oat; [15]
  Plant response rating, Wild oats: 0
Wild oat; [8]
  Plant response rating, Wild oats: 0
Wild oat; [17]
  Wild oats plant response rating: 0

## CC(C)N(C(=O)n1oc(=O)n(Cc2ccccc2)c1=O)c1ccc(F)cc1F [Compound 79]
morningglory; [11]
  Morningglory plant response rating: 5
morningglory; [12]
  Morningglory plant response rating: 7
morningglory; [18]
  Morningglory plant response rating: 0
morningglory; [15]
  Plant response rating, Morningglory: 0
morningglory; [8]
  Plant response rating, Morningglory: 0
morningglory; [19]
  Morningglory plant response rating: 0
morningglory; [17]
  Morningglory plant response rating: 5
morningglory; [10]
  Morningglory plant response rating: 8
pigweed; [11]
  Redroot pigweed plant response rating: 0
pigweed; [12]
  Redroot pigweed plant response rating: 3
pigweed; [18]
  Redroot pigweed plant response rating: 0
pigweed; [15]
  Plant response rating, Redroot pigweed: 4
pigweed; [8]
  Plant response rating, Redroot pigweed: 7
pigweed; [19]
  Redroot pigweed plant response rating: 10
pigweed; [17]
  Redroot pigweed plant response rating: 0
pigweed; [10]
  Redroot pigweed plant response rating: 4
Wild oat; [11]
  Wild oats plant response rating: 0
Wild oat; [12]
  Wild oats plant response rating: 0
Wild oat; [18]
  Wild oats plant response rating: 0
Wild oat; [15]
  Plant response rating, Wild oats: 0
Wild oat; [8]
  Plant response rating, Wild oats: 3
Wild oat; [19]
  Wild oats plant response rating: 4
Wild oat; [17]
  Wild oats plant response rating: 0
Wild oat; [10]
  Wild oats plant response rating: 0

## CC(C)N(C(=O)n1oc(=O)n(CC(=O)C(C)(C)C)c1=O)c1ccc(F)cc1 [Compound 216]
morningglory; [1]
  Morningglory plant response rating: 0
morningglory; [8]
  Morningglory plant response rating: 0
morningglory; [4]
  Plant response rating, Morningglory: 0
morningglory; [5]
  Morningglory plant response rating: 3
morningglory; [6]
  Morningglory plant response rating: 4
morningglory; [9]
  Morningglory plant response rating: 0
morningglory; Rate 250 g/ha, Postemergence
  Plant response rating (0 to 10; 0 is no effect, 10 is complete control), Morningglory: 7
morningglory; [7]
  Morningglory plant response rating: 10
pigweed; [1]
  Redroot pigweed plant response rating: 0
pigweed; [8]
  Redroot pigweed plant response rating: 2
pigweed; [4]
  Plant response rating, Redroot pigweed: 8
pigweed; [5]
  Redroot pigweed plant response rating: 0
pigweed; [6]
  Redroot pigweed plant response rating: 0
pigweed; [9]
  Redroot pigweed plant response rating: 0
pigweed; Rate 250 g/ha, Postemergence
  Plant response rating (0 to 10; 0 is no effect, 10 is complete control), Redroot pigweed: 2
pigweed; [7]
  Redroot pigweed plant response rating: 3
Wild oat; [1]
  Wild oats plant response rating: 0
Wild oat; [8]
  Wild oats plant response rating: 0
Wild oat; [4]
  Plant response rating, Wild oats: 0
Wild oat; [5]
  Wild oats plant response rating: 0
Wild oat; [6]
  Wild oats plant response rating: 0
Wild oat; [9]
  Wild oats plant response rating: 0
Wild oat; Rate 250 g/ha, Postemergence
  Plant response rating (0 to 10; 0 is no effect, 10 is complete control), Wild oats: 0

## COCCn1c(=O)on(C(=O)N(c2ccccc2)C(C)C)c1=O [Compound 631]
morningglory; [11]
  Plant response rating, Morningglory: 0
morningglory; [20]
  Plant response rating, Morningglory: 4
morningglory; [21]
  Morningglory plant response rating: 4
morningglory; Postemergence, Rate 500 g/ha, scale of 0 to 10 where 0 is no effect and 10 is complete control
  Plant response rating, Morningglory: 10
morningglory; [18]
  Morningglory plant response rating: 0
morningglory; [22]
  Morningglory plant response rating: 0
morningglory; [23]
  Plant response rating, Morningglory: 4
morningglory; [4]
  Plant response rating, Morningglory: 7
pigweed; [11]
  Plant response rating, Redroot pigweed: 0
pigweed; [20]
  Plant response rating, Redroot pigweed: 0
pigweed; [18]
  Redroot pigweed plant response rating: 7
pigweed; [22]
  Redroot pigweed plant response rating: 9
pigweed; [23]
  Plant response rating, Redroot pigweed: 10
pigweed; [4]
  Plant response rating, Redroot pigweed: 10
Wild oat; [11]
  Plant response rating, Wild oats: 0
Wild oat; [20]
  Plant response rating, Wild oats: 0
Wild oat; [21]
  Wild oats plant response rating: 1
Wild oat; [18]
  Wild oats plant response rating: 0
Wild oat; [22]
  Wild oats plant response rating: 2
Wild oat; [23]
  Plant response rating, Wild oats: 8
Wild oat; [4]
  Plant response rating, Wild oats: 9

## Cc1ccccc1-n1c(=O)on(C(=O)N(c2ccc3c(c2)CCC3)C(C)C)c1=O [Compound 278]
morningglory; [1]
  Morningglory plant response rating: 0
morningglory; [8]
  Morningglory plant response rating: 0
morningglory; [4]
  Plant response rating, Morningglory: 0
morningglory; [24]
  Morningglory plant response rating: 3
morningglory; [25]
  Morningglory plant response rating: 3
morningglory; [9]
  Morningglory plant response rating: 0
morningglory; [26]
  Plant response rating, Morningglory: 4
morningglory; [10]
  Morningglory plant response rating: 4
pigweed; [1]
  Redroot pigweed plant response rating: 0
pigweed; [8]
  Redroot pigweed plant response rating: 0
pigweed; [4]
  Plant response rating, Redroot pigweed: 0
pigweed; [24]
  Redroot pigweed plant response rating: 0
pigweed; [25]
  Redroot pigweed plant response rating: 0
pigweed; [9]
  Redroot pigweed plant response rating: 0
pigweed; [26]
  Plant response rating, Redroot pigweed: 0
pigweed; [10]
  Redroot pigweed plant response rating: 4
Wild oat; [1]
  Wild oats plant response rating: 0
Wild oat; [8]
  Wild oats plant response rating: 0
Wild oat; [4]
  Plant response rating, Wild oats: 0
Wild oat; [24]
  Wild oats plant response rating: 0
Wild oat; [25]
  Wild oats plant response rating: 0
Wild oat; [26]
  Plant response rating, Wild oats: 0
Wild oat; [10]
  Wild oats plant response rating: 0

## Cc1cccc(C(C)C)c1-n1c(=O)on(C(=O)N(c2ccc(Cl)cc2)C(C)C)c1=O [Compound 64]
morningglory; [11]
  Morningglory plant response rating: 0
morningglory; [12]
  Morningglory plant response rating: 0
morningglory; [18]
  Morningglory plant response rating: 0
morningglory; [15]
  Plant response rating, Morningglory: 0
morningglory; [8]
  Plant response rating, Morningglory: 0
morningglory; [19]
  Morningglory plant response rating: 0
morningglory; [17]
  Morningglory plant response rating: 0
morningglory; [10]
  Morningglory plant response rating: 0
pigweed; [11]
  Redroot pigweed plant response rating: 0
pigweed; [12]
  Redroot pigweed plant response rating: 0
pigweed; [18]
  Redroot pigweed plant response rating: 0
pigweed; [15]
  Plant response rating, Redroot pigweed: 0
pigweed; [8]
  Plant response rating, Redroot pigweed: 0
pigweed; [19]
  Redroot pigweed plant response rating: 0
pigweed; [17]
  Redroot pigweed plant response rating: 0
pigweed; [10]
  Redroot pigweed plant response rating: 0
Wild oat; [11]
  Wild oats plant response rating: 0
Wild oat; [12]
  Wild oats plant response rating: 0
Wild oat; [18]
  Wild oats plant response rating: 0
Wild oat; [15]
  Plant response rating, Wild oats: 0
Wild oat; [8]
  Plant response rating, Wild oats: 0
Wild oat; [19]
  Wild oats plant response rating: 0
Wild oat; [17]
  Wild oats plant response rating: 0
Wild oat; [10]
  Wild oats plant response rating: 0
